Reference: patent US20240327789A1, “HUMAN CEREBELLAR ORGANOIDS WITH BONA FIDE PURKINJE CELLS AND USES THEREOF” (University of Southern California, priority 2023, published 2024)

Test system: hCerOs
Experiment: Two-photon calcium imaging of intact hCerOs with bath application of drugs
Assay type: cell-based, human

## NC1=N[C@H](O)[C@H]2[C@H]3O[C@]4(O)O[C@@H]([C@@H](O)[C@@]2(N1)[C@@H]4O)[C@]3(O)CO [Tetrodotoxin]
  sensitivity of individual Ca2+ neuronal calcium signals: sensitive
